The values below come from the NIST ThermoML archive (doi:10.1016/j.tca.2016.09.002).

Structures are written as SMILES. ± gives the expanded uncertainty stated by the source.

Series [1] is described as follows: wn = mass fraction of the nth substance listed. To be noted: 303.15 K, 100.7 kPa, Liquid, Hot wire method.
The conditions of series [2]: 101.33 kPa, Liquid, Hot wire method.

`C[C@H](CCC(=O)[O-])[C@H]1CC[C@H]2[C@@H]3CC[C@@H]4C[C@H](O)CC[C@]4(C)[C@H]3C[C@H](O)[C@]12C.[Na+]` [sodium deoxycholate] + O: the thermal conductivity in series [1] (w1 = 0.0085) is on record as 0.617 ± 0.006 W/m/K.
In the case of `OCCO` [1,2-ethanediol], the thermal conductivity in series [2] (303.15 K) is listed as 0.254 ± 0.003 W/m/K; in series [2] (313.15 K) it was 0.256 ± 0.004 W/m/K; in series [2] (323.15 K), 0.26 ± 0.003 W/m/K.
With `C[C@H](CCC(=O)[O-])[C@H]1CC[C@H]2[C@@H]3CC[C@@H]4C[C@H](O)CC[C@]4(C)[C@H]3C[C@H](O)[C@]12C.[Na+]` [sodium deoxycholate] + OCCO, the thermal conductivity in series [1] (w1 = 0.00761) is 0.259 ± 0.003 W/m/K.
For `O` [water], the thermal conductivity is 0.607 ± 0.015 W/m/K in series [2] (303.15 K), 0.621 ± 0.016 W/m/K in series [2] (313.15 K) and 0.631 ± 0.016 W/m/K in series [2] (323.15 K).
